The nature of data set [1]: Solubility via potentiometric titration (pSOL solubility profiler). In kind it is physicochemical. Conditions: for Solubility data: hydrochloride; for solubility: water, thermodynamic from solid. The procedure:
Solubility data of Forms II, III, IV, V, VI and VIII are measured according to Alex Avdeef et al, Pharm. Pharmacol. Commun.
The pSOLTM solubility profiler, automatically collects potentiometric data, calculates the pH-solubility profiles, and prints the values at 0.1 pH unit intervals. Intrinsic solubilities in the milli-, micro- and nanogram levels can be determined. Also presented are two new concepts, the Flux Factor Profile and Dose Limit Profile. Both concepts follow the guidelines consistent with the BioPharmaceutics Classification Scheme.

Data set [2] in a line: Thermodynamic stability of the forms, energy/temperature diagram (FIG. 27). It counts as physicochemical. The source says:
FIG. 27 is an energy/temperature diagram of Forms III, IV and VII

Where two headings read alike, the source gives them in different places.

With `Cl.N#Cc1ccc2[nH]cc(CCCCN3CCN(c4ccc5oc(C(N)=O)cc5c4)CC3)c2c1` [Form I, 1-[4-(5-cyanoindol-3-yl)butyl]-4-(2-carbamoyl-benzofuran-5-yl)-piperazine hydrochloride], in data set [1] (potentiometric titration according to Avdeef et al., listed as I), the Solubility data is 0.08 µg/mL.
`Cl.N#Cc1ccc2[nH]cc(CCCCN3CCN(c4ccc5oc(C(N)=O)cc5c4)CC3)c2c1` [Form II, 1-[4-(5-cyanoindol-3-yl)butyl]-4-(2-carbamoyl-benzofuran-5-yl)-piperazine hydrochloride]: in data set [1] (potentiometric titration according to Avdeef et al., listed as II), the Solubility data worked out at 0.03 µg/mL.
`Cl.N#Cc1ccc2[nH]cc(CCCCN3CCN(c4ccc5oc(C(N)=O)cc5c4)CC3)c2c1` [Form III, 1-[4-(5-cyanoindol-3-yl)butyl]-4-(2-carbamoyl-benzofuran-5-yl)-piperazine hydrochloride] showed a Solubility data in data set [1] (potentiometric titration according to Avdeef et al., listed as III) of 0.12 µg/mL. The “relative (thermodynamic) stability of the form at room temperature” value in data set [2] (room temperature) is recorded as “the most stable form at room temperature”.
As a reminder, the solubility is how much of the substance goes into solution per volume. The compound `Cl.N#Cc1ccc2[nH]cc(CCCCN3CCN(c4ccc5oc(C(N)=O)cc5c4)CC3)c2c1` [Form IV, 1-[4-(5-cyanoindol-3-yl)butyl]-4-(2-carbamoyl-benzofuran-5-yl)-piperazine hydrochloride] registered a Solubility data in data set [1] (potentiometric titration according to Avdeef et al., listed as IV) of 0.33 µg/mL. The solubility in data set [1] (in water, read-out: solubility in water) was 0.328 µg/mL. In addition, the “relative stability of the form at higher temperatures” value in data set [2] (higher temperatures, e.g. >100° C.) is listed as “the most stable form at higher temperatures”.
Consider `Cl.N#Cc1ccc2[nH]cc(CCCCN3CCN(c4ccc5oc(C(N)=O)cc5c4)CC3)c2c1.O` [Form V, 1-[4-(5-cyanoindol-3-yl)butyl]-4-(2-carbamoyl-benzofuran-5-yl)-piperazine hydrochloride monohydrate], for which the solubility in data set [1] (potentiometric titration according to Avdeef et al., read-out: Solubility data) is 0.18 µg/mL.
Turning to `Cl.N#Cc1ccc2[nH]cc(CCCCN3CCN(c4ccc5oc(C(N)=O)cc5c4)CC3)c2c1` [Form VI, 1-[4-(5-cyanoindol-3-yl)butyl]-4-(2-carbamoyl-benzofuran-5-yl)-piperazine hydrochloride], the Solubility data in data set [1] (potentiometric titration according to Avdeef et al., listed as VI) stood at 0.23 µg/mL.
